According to patent US20190167629A1, “COMBINATION THERAPY METHODS FOR TREATING PROLIFERATIVE DISEASES” (Abraxis BioScience, LLC, priority 2010, published 2019):
Read-outs that look alike come from different tables or passages of the source.

Experiments:
[1] = test system: advanced or metastatic solid tumors, including lymphoma; assay: Phase I/II study of azacitidine with nanoparticle albumin bound paclitaxel; assay type: in vivo, human; conditions: azacitidine sc days 1-5, then paclitaxel 100 mg/m^2 days 8, 15, 22 of 28-day cycle
Method: Patients with evaluable advanced or metastatic solid tumors, including lymphoma, adequate organ function, PS 0-2, and unlimited prior cytotoxic chemotherapies, including taxanes, were eligible. Cohorts of 3-6 patients were enrolled and treated.
Escalating doses of azacitidine (75-100 mg/m^2) were administered to patients subcutaneously on days 1-5, followed by a fixed dose of paclitaxel ([…]) on days 8, 15, and 22 of a 28-day cycle, for a total of 6 cycles. Serum and/or tissue samples, where appropriate, were collected for correlative studies.
Patients were initially permitted to have an unlimited number of prior chemotherapies. […] All affected patients had 4 or more prior cytotoxic regimens. […] Cohort 3 was treated at the next dose level (azacitidine 100 mg/m^2). […] Therefore, the maximum tolerated dose (MTD) of azacitidine in this regimen is 75 mg/m^2. […] To date, 16 patients have enrolled in the phase I part. Two patients were removed before completing cycle 1 because of disease progression. One patient was removed after cycle 4 for noncompliance.

SPARC [2] = assay: SPARC promoter methylation (MSP) and SPARC expression (RT-PCR, Western blot) in NSCLC cell lines in vitro; assay type: cell-based, human; conditions: 3 days in vitro
Method: Total RNA was extracted from the samples with Trizol reagent (Invitrogen; Carlsbad, Calif.), and first-strand complementary DNA was generated using SuperScript III First-Strand Synthesis System (Invitrogen). The forward polymerase chain reaction (PCR) amplification primer of SPARC was 5′-[…]-3′ (Ex8-S, SEQ ID NO:1), and the reverse primer was 5-[…]-3′ (Ex9-AS, SEQ ID NO:2). Semiquantitative PCR was carried out for 4 minutes at 95° C. for initial denaturation, followed by 33 cycles of 94° C. for 25 seconds, 56° C. for 25 seconds, and 68° C. for 40 seconds. Glyceraldehyde-3-phosphate dehydrogenase (GAPDH) was used as endogenous control. Quantitative real-time (RT) PCR was done with SYBR GreenER qPCR superMix for ABI PRISM (Invitrogen) using ABI 7300 RT PCR system (Invitrogen), and GAPDH was used as a housekeeping gene for purpose of normalization.
The objective of this study was to determine if demethylation of the promoter region of the SPARC gene results in reexpression of the SPARC gene in cancer cells. DNA methylation in gene promoter regions is a mechanism to silence gene expression. The loss of SPARC expression in a large proportion of NSCLC specimens may be due to the methylation in the promoter region of SPARC gene was investigated. Representative samples of NSCLC cell lines or PD xenografts were treated with decitabine (5 μM) in vitro for three days and promoter methylation was analyzed.
Genomic DNA was obtained from cell lines and primary tumors by using DNeasy Blood and Tissue Kit (Qiagen; Valencia, Calif.) according to the manufacturer's handbook. The DNA methylation pattern in the CpG island of SPARC was determined using the method of methylation-specific PCR (MSP) and with the EZ DNA Methylation Kit (Zymo research, Irvine, Calif.). Primers for the methylated reaction were Sparc-unmsp-F: 5′-[…]-3′ (sense, SEQ ID NO:3), Sparcunmsp-R: 5′-[…]-3′ (antisense, SEQ ID NO:4), sparc-msp-F: 5′-[…]-3′ (sense, SEQ ID NO:5), and sparc-msp-R: 5′-[…]-3′ (antisense, SEQ ID NO:6). PCR amplification was carried out with bisulfite-treated DNA as a template using specific primer sequences for the methylated and unmethylated status of the gene. Water blanks were included with each assay. PCR amplification was carried out for 12 minutes at 94° C. for initial denaturation, followed by 40 cycles of 94° C. for 30 seconds, 58° C. for 25 seconds, and 68° C. for 45 seconds. Results were confirmed by repeating the bisulfate treatment and MSP for all samples. PCR products were visualized on 1.5% agarose gels.
Western blot analysis was carried out using standard methods. Polyclonal antihuman SPARC antibody was purchased from R&D System (Minneapolis, Minn.). […] The levels of β-actin (Sigma) were measured as control for equal loading. […]

SPARC [3] = assay: SPARC expression in NSCLC xenografts in vivo; parameters: species or system SCID mice
Method: Western blot analysis was carried out using standard methods. Polyclonal antihuman SPARC antibody was purchased from R&D System (Minneapolis, Minn.). NSCLC cell lines A549, H460, and H157 were treated with 5 μM decitabine for 3 days in vitro and then harvested for RT-PCR and Western blot analysis. PD NSCLC xenografts and H460 xenografts treated with or without decitabine at 1.5 mg/kg/d. Xenografts were harvested for SPARC expression analysis. GAPDH were used as the endogenous control. Xenograft lysates were prepared and subjected to immunoblot analysis using 50 μg of cellular protein as described previously (Yu, C. et al. Blood 2003 102:3765-3774). The levels of β-actin (Sigma) were measured as control for equal loading. Immunoblots were developed with enhanced chemiluminescence (Amersham Bioscience, Golden Valley, Minn.).
To establish a maximally tolerated dose to be used in experiments involving pretreatment with decitabine, groups of mice implanted with H460 cell lines were tested at four dose levels of decitabine, i.e., 0.75, 1.5, 2, and 4 mg/kg, administered intraperitoneally as a single dose and monitored for viability (weight loss and death). Two mice from each group were killed 48 hours after completing decitabine treatment alone and tumor xenografts harvested to affirm SPARC-expression status. […]

[4] = test system: mice implanted with H460 cell lines; assay: Tolerable dose of decitabine, viability (weight loss and death); assay type: in vivo, SCID mice
Method: To establish a maximally tolerated dose to be used in experiments involving pretreatment with decitabine, groups of mice implanted with H460 cell lines were tested at four dose levels of decitabine, i.e., 0.75, 1.5, 2, and 4 mg/kg, administered intraperitoneally as a single dose and monitored for viability (weight loss and death). Two mice from each group were killed 48 hours after completing decitabine treatment alone and tumor xenografts harvested to affirm SPARC-expression status. For combination drug treatment, Abraxane® was administered by tail vein injection at 30 mg/kg/d for 5 consecutive days. Taxol and decitabine were used at 13.4 mg/kg/d and 1.5 mg/kg/d, respectively. […] At the end of drug treatment, the mice were killed. Xenografts were harvested and assayed to determine SPARC status.
The study evaluates tumor SPARC expression upregulation on treatment with decitabine in vitro and in vivo. To establish a tolerable dose to be used in experiments in vivo, groups of mice implanted with H460 cell lines were tested at four dose levels of decitabine, i.e., 0.75, 1.5, 2, and 4 mg/kg, respectively. This is based on prior publication showing that decitabine administered twice daily intraperitoneally for 5 days was toxic at 10 mg/kg/dose, and 2 mg/kg dose was associated with mild toxicity (Guo, Z S et al Cancer Res 2006 22:1105-1113). […] Nevertheless, decitabine at 2 and 4 mg/kg was toxic with 6/8 (75%) mice dead between 8 and 12 days after only one decitabine dose (without Abraxane® treatment). Decitabine dose at 1.5 mg/kg was subsequently used in the combination experiments.

[5] = cited from earlier work
NSCLC_16372 xenograft = assay: Tumor xenograft growth in vivo, SPARC-positive PD NSCLC xenograft; parameters: species or system SCID mice; conditions: Abraxane 30 mg/kg, taxol 13.4 mg/kg (equitoxic)
Method: (§1) Experimental studies were carried out using 6- to 8-week-old CB.17 severe combined immunodeficiency (SCID)/SCID with an average body weight ˜25 g. H460 (5×10^6 cells) or PD NSCLC xenografts (mouse-to-mouse passage), which were cut into small fragments (2-3 mm in size), were implanted subcutaneously at the flank region. Tumor growth was monitored by periodic visual inspection at the site of implantation, and the dimensions of the xenografts were measured every 2 to 3 days. Tumor volume was calculated using the following formula: V=LD×(SD)^2/2, where V is the tumor volume, LD is the longest tumor diameter, and SD is the shortest tumor diameter.
(§2) To establish a maximally tolerated dose to be used in experiments involving pretreatment with decitabine, groups of mice implanted with H460 cell lines were tested at four dose levels of decitabine, i.e., 0.75, 1.5, 2, and 4 mg/kg, administered intraperitoneally as a single dose and monitored for viability (weight loss and death). […]
(§3) To describe the observed variability in the in vivo data and test for differences between groups, a multivariate linear model was fit to each dependent variable (tumor volume). […] Difference was considered statistically significant when the calculated p value was less than 0.05.

NSCLC_15946 xenograft = assay: Tumor xenograft growth in vivo, SPARC-intermediate PD NSCLC xenograft; parameters: species or system SCID mice; conditions: Abraxane 30 mg/kg, taxol 13.4 mg/kg (equitoxic)
Method: as §1, §2, §3

NSCLC_16465 xenograft = assay: Tumor xenograft growth in vivo, SPARC-negative PD NSCLC xenograft; parameters: species or system SCID mice; conditions: taxol 13.4 mg/kg
Method: as §1, §2, §3

NSCLC_16591 xenograft = assay: as above; parameters: species or system SCID mice; conditions: Abraxane 30 mg/kg, taxol 13.4 mg/kg (equitoxic)
Method: as §1, §2, §3

[6] = decitabine at 2 and 4 mg/kg ip, without Abraxane treatment

Nc1ncn([C@@H]2O[C@H](CO)[C@@H](O)[C@H]2O)c(=O)n1 [azacitidine, 5-azacytidine]
maximum tolerated dose (MTD) of azacitidine in this regimen [1]: 75 mg/m^2

Nc1ncn([C@H]2C[C@H](O)[C@@H](CO)O2)c(=O)n1 [decitabine, 5-aza-2′-deoxycytidine]
SPARC expression in NSCLC cell lines (SPARC [2]; A549, H460 and H157, decitabine 5 μM): up-regulated
SPARC expression (SPARC [2]; H460 cells, decitabine 5 μM): up-regulated
SPARC protein (Western blot) (SPARC [2]; H460 cells, decitabine 5 μM): upregulation
unmethylated promoter of SPARC (methylation-specific PCR) (SPARC [2]; H460 cells, decitabine 5 μM): increase
SPARC expression in xenografts (SPARC [3]; NSCLC_16325, NSCLC_16384 and H460 xenografts, decitabine 1.5 mg/kg): up-regulated
reexpression of SPARC in H460 xenografts (SPARC [3]; decitabine 0.75, 1.5, 2 and 4 mg/kg ip): dose-dependent reexpression
toxicity ([4]; decitabine at 2 and 4 mg/kg ip single dose): toxic
mice dead between 8 and 12 days after only one decitabine dose [4, 6]: 75%
mice dead between 8 and 12 days after only one decitabine dose (number/total) [4, 6]: 6/8
toxicity ([5]; 2 mg/kg dose twice daily intraperitoneally for 5 days): mild toxicity
toxicity ([5]; 10 mg/kg/dose twice daily intraperitoneally for 5 days): toxic

CC(=O)O[C@H]1C(=O)[C@@]2(C)[C@H]([C@H](OC(=O)c3ccccc3)[C@]3(O)C[C@H](OC(=O)[C@H](O)[C@@H](NC(=O)c4ccccc4)c4ccccc4)C(C)=C1C3(C)C)[C@]1(OC(C)=O)CO[C@@H]1C[C@@H]2O [taxol]
xenograft growth compared with vehicle control (NSCLC_16372 xenograft): suppressed
tumor growth compared with vehicle control (NSCLC_15946 xenograft): significantly inhibited
tumor growth compared with vehicle control (NSCLC_16465 xenograft): no difference compared with vehicle control
effect on tumor growth compared with vehicle control (NSCLC_16591 xenograft): Neither administration of taxol nor administration of Abraxane® showed any effect on tumor growth
